Measurements from publication doi:10.1101/2021.04.08.439011v1 (biorxiv, 2021).

Tests used:
Details in all cases: 0.1 µM; binder
FYN = FYN (Homo sapiens, UniProt P06241)
GRK2 = GRK2 (Homo sapiens, UniProt P25098)
HCK = HCK (Homo sapiens, UniProt P08631)
GRK3 = GRK3 (Homo sapiens, UniProt P35626)
PIK3CA(H1047Y) = PIK3CA(H1047Y) (Homo sapiens, UniProt P42336, H1047Y)
PAK7 = PAK7 (Homo sapiens, UniProt Q9P286)
BRK = BRK (Homo sapiens, UniProt Q13882)
PIM1 = PIM1 (Homo sapiens, UniProt P11309)
MRCKB = MRCKB (Homo sapiens, UniProt Q9Y5S2)
TNIK = TNIK (Homo sapiens, UniProt Q9UKE5)
WNK3 = WNK3 (Homo sapiens, UniProt Q9BYP7)
GAK = GAK (Homo sapiens, UniProt O14976)
p38-beta = p38-beta (Homo sapiens, UniProt Q15759)
PIP5K1A = PIP5K1A (Homo sapiens, UniProt Q99755)
FLT3(ITD,F691L) = FLT3(ITD,F691L) (Homo sapiens, UniProt P36888, F691L/ITD)
TAOK1 = TAOK1 (Homo sapiens, UniProt Q7L7X3)
SBK1 = SBK1 (Homo sapiens, UniProt Q52WX2)
FLT4 = FLT4 (Homo sapiens, UniProt P35916)
PIK3CA(C420R) = PIK3CA(C420R) (Homo sapiens, UniProt P42336, C420R)
PIK3CA(I800L) = PIK3CA(I800L) (Homo sapiens, UniProt P42336, I800L)
FLT3(D835V) = FLT3(D835V) (Homo sapiens, UniProt P36888, D835V)
KIT(A829P) = KIT(A829P) (Homo sapiens, UniProt P10721, A829P)
ROCK1 = ROCK1 (Homo sapiens, UniProt Q13464)
BIKE = BIKE (Homo sapiens, UniProt Q9NSY1)
ZAK = ZAK (Homo sapiens, UniProt Q9NYL2)
RIOK2 = RIOK2 (Homo sapiens, UniProt Q9BVS4)
EPHB4 = EPHB4 (Homo sapiens, UniProt P54760)
BRSK1 = BRSK1 (Homo sapiens, UniProt Q8TDC3)
TLK2 = TLK2 (Homo sapiens, UniProt Q86UE8)
MLK3 = MLK3 (Homo sapiens, UniProt Q16584)
CDK9 = CDK9 (Homo sapiens, UniProt P50750)

Sequence of GRK3 (P35626 whole entry): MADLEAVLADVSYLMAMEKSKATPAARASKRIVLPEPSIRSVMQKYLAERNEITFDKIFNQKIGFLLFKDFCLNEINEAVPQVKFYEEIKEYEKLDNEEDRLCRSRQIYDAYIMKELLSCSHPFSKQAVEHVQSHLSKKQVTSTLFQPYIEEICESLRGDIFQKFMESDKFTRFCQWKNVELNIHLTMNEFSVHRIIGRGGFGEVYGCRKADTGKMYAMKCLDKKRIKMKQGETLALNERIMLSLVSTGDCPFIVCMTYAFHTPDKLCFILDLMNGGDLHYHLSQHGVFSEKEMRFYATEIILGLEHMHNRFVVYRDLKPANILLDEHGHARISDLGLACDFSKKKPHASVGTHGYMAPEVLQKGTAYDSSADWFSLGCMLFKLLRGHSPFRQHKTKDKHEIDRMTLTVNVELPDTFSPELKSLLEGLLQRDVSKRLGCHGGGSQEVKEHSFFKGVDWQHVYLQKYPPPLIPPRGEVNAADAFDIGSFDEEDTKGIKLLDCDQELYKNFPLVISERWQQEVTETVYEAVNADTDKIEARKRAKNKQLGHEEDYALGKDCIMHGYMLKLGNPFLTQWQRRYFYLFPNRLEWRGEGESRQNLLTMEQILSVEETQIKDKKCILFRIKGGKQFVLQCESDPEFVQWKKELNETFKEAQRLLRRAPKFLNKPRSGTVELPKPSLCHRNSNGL
Sequence of GRK2 (P25098 whole entry): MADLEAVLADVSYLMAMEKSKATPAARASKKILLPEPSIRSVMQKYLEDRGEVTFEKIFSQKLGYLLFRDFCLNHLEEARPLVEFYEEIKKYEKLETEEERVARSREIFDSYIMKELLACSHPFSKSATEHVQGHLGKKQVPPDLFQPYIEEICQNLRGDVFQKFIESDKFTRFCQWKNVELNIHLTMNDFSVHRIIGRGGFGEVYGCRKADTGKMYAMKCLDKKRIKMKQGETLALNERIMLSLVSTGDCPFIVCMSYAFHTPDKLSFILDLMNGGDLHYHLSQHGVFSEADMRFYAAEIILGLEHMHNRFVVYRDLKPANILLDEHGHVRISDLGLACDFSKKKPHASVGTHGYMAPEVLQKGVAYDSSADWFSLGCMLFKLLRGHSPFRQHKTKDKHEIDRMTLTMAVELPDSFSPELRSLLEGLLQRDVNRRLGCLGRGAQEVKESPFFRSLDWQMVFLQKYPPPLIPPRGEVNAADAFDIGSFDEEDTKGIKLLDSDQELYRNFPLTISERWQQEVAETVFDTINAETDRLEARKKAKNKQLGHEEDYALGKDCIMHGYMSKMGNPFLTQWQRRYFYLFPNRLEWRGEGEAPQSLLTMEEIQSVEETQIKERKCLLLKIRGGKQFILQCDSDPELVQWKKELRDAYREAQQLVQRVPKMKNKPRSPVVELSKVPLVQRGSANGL
Sequence of BIKE (Q9NSY1 whole entry): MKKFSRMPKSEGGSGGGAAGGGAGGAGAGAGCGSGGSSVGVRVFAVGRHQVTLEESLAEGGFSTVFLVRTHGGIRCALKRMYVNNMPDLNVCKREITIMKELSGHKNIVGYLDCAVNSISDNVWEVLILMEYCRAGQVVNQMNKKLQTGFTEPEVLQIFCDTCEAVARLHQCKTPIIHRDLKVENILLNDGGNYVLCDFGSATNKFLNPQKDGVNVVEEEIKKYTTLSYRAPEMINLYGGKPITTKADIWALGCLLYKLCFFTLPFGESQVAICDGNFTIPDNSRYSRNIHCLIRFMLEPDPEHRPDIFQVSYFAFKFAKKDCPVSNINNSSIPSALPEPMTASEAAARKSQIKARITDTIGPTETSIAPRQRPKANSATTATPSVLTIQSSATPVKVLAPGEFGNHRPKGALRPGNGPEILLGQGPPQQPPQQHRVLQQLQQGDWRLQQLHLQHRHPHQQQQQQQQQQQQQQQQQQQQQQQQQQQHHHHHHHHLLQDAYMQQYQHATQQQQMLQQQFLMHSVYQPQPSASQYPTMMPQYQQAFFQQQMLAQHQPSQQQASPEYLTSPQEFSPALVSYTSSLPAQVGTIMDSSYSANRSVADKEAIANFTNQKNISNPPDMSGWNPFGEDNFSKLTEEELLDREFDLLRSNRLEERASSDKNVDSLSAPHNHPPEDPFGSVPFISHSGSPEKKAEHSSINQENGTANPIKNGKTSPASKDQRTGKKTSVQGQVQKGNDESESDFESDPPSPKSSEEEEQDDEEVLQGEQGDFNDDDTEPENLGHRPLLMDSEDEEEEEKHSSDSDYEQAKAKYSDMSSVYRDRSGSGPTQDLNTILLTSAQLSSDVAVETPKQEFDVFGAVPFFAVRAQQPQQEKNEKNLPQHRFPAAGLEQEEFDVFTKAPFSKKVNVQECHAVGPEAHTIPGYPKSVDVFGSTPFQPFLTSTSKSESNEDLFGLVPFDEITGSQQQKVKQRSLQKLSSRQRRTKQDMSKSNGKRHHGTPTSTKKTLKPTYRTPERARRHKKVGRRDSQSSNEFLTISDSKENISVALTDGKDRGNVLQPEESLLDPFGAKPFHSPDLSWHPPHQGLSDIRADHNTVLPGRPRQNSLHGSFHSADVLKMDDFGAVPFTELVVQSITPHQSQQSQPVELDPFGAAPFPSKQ
Sequence of ZAK (Q9NYL2 whole entry): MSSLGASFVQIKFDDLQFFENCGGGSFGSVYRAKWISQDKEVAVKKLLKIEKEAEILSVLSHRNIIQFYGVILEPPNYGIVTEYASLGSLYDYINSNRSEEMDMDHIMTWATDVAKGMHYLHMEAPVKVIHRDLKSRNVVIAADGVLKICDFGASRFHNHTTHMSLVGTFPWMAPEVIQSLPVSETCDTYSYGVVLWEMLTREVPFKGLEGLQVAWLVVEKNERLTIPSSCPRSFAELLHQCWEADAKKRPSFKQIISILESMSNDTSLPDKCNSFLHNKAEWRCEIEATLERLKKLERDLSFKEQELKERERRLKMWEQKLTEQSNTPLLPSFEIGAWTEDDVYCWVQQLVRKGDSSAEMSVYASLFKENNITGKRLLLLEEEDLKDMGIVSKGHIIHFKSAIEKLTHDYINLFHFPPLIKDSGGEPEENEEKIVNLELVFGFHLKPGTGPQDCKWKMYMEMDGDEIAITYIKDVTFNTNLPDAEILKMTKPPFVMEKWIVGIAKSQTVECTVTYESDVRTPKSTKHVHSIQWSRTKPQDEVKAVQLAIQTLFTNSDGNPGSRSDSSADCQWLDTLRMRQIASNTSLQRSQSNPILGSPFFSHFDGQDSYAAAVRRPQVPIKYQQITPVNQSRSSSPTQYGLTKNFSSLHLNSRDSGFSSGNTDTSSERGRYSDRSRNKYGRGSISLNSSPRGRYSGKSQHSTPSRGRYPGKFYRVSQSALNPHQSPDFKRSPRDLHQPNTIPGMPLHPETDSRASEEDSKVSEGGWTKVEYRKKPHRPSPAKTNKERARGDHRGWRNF
Sequence of GAK (O14976 whole entry): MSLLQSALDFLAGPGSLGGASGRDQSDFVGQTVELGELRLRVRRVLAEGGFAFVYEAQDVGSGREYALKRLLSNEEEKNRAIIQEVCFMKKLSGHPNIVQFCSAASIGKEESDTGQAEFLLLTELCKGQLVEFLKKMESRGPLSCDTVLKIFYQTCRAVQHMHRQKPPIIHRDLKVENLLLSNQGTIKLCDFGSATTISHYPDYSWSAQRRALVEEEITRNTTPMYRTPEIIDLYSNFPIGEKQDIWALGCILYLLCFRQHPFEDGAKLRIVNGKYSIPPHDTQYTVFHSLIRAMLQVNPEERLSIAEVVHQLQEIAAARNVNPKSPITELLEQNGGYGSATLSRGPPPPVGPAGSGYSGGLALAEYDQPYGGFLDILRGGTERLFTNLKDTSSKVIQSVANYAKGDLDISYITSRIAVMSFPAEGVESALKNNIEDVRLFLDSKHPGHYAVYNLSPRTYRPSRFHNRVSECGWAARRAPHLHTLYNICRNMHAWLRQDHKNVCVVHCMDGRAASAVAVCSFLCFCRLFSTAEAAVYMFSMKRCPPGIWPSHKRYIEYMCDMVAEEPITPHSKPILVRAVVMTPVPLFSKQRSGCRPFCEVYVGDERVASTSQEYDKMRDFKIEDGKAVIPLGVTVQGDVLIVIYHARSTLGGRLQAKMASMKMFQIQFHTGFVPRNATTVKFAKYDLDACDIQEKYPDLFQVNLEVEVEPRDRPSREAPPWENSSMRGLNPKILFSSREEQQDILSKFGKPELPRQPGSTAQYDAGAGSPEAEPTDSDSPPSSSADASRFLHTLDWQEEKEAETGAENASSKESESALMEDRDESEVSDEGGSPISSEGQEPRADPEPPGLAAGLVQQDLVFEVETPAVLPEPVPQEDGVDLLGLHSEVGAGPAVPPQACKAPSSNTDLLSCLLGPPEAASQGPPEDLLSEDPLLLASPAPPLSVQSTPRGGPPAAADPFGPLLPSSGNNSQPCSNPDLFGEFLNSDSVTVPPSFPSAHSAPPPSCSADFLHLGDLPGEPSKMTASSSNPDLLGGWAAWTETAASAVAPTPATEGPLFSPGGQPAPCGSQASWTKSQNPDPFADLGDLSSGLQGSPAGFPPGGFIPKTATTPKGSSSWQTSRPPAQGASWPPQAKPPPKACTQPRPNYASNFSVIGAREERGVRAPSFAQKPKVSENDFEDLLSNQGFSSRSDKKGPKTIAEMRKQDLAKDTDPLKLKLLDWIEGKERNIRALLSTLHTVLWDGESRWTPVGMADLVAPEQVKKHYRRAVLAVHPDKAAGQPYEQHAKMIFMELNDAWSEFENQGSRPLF
Sequence of PIM1 (P11309 whole entry): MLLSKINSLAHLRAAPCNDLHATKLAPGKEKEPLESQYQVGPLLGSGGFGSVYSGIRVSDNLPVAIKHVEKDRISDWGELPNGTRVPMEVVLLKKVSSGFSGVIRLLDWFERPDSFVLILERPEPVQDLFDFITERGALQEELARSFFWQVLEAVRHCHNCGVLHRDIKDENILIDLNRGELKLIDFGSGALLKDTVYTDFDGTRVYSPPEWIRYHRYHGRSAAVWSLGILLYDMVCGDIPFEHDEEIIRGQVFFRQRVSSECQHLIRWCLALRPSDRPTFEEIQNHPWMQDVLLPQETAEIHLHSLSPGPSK

CNc1ncc2cc(-c3ccc(-c4cccc(C)n4)cc3Cl)c(=O)n(C[C@H]3OC[C@H](N)CO3)c2n1 [compound 6, G-5555]
Percent Control (FYN): 100% | Percent Control (GRK2): 97% | Percent Control (HCK): 100% | Percent Control (GRK3): 83% | Percent Control (PIK3CA(H1047Y)): 73% | Percent Control (PAK7): 100% | Percent Control (BRK): 100% | Percent Control (PIM1): 100% | Percent Control (MRCKB): 73% | Percent Control (TNIK): 100% | Percent Control (WNK3): 100% | Percent Control (GAK): 51% | Percent Control (p38-beta): 97% | Percent Control (PIP5K1A): 48% | Percent Control (FLT3(ITD,F691L)): 56% | Percent Control (TAOK1): 100% | Percent Control (SBK1): 98% | Percent Control (FLT4): 100% | Percent Control (PIK3CA(C420R)): 80% | Percent Control (PIK3CA(I800L)): 87% | Percent Control (FLT3(D835V)): 85% | Percent Control (KIT(A829P)): 81% | Percent Control (ROCK1): 83% | Percent Control (BIKE): 100% | Percent Control (ZAK): 97% | Percent Control (RIOK2): 100% | Percent Control (EPHB4): 100% | Percent Control (BRSK1): 100% | Percent Control (TLK2): 100% | Percent Control (MLK3): 100% | Percent Control (CDK9): 100%
